Broadly, the IC50 is the concentration that inhibits the measured activity by half.

For the assay, the target named is T1, Cytochrome P450 11B2, mitochondrial (Homo sapiens, UniProt P19099).
T1 sequence (P19099 whole entry): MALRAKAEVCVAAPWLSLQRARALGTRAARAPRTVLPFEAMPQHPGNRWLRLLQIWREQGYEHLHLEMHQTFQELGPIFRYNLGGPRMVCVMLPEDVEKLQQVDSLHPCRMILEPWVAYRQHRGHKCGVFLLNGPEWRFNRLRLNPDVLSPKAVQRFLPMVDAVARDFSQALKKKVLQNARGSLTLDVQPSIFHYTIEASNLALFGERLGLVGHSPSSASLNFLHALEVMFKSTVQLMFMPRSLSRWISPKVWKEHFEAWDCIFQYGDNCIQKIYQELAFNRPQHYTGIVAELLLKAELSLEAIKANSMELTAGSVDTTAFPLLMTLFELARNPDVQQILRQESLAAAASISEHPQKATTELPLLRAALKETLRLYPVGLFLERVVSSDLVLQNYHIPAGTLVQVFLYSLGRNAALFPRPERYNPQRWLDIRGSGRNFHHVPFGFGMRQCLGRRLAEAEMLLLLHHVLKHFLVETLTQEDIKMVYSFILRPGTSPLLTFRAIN
In words: HTRF-Based Assay : V79 cell lines stably expressing the either the human CYP11B2 or the human CYP11B1 enzyme were generated using a standard transfection protocol. V79 cells were transfected with plasmids pTriEx3-Hygro-hCyp11B2 or pTriEx3-Hygro-hCyp11B1 using Lipofectamine2000 reagent. V79 cells that stably express the human CYP11B2 or human CYP11B1 enzyme were selected for and maintained in DMEM supplemented with 10% FBS and 400 μg/mL hygromycin for 2 weeks. Single cell clones were generated by infinite dilution in DMEM supplemented with 10% FBS and 400 μg/mL hygromycin until single colonies were obtained. Clones V79-hCYP11B2-CLE9 and V79-hCYP11B1-CL8C7, were determined to produce the most aldosterone and cortisol, respectively, and were selected for inhibitor screening. For testing of inhibitors, cells were harvested at 80% confluency with 0.05% Trypsan-EDTA, washed once in PBS, and reconstituted in DMEM+0.1% BSA media at a cell concentration of 600,000 cells/mL for the CYP11B2 assay and 280,000 cells/mL for the CYP11B1 assay. 25 μL of cells were added to a 384 well tissue culture treated plate and mixed with 0.3 μL of inhibitor or DMSO (1% final DMSO concentration) for 1 hour at 37° C., 5% CO2. After pre-incubation with inhibitor, the reaction was initiated by adding 5 μL of substrate (final concentration of 125 nM 11-deoxycorticosterone for the CYP11B2 assay or 250 nM 11-deoxycortisol for the CYP11B1 assay). The reaction was carried out for 3 hours at 37° C., 5% CO2 and was stopped by harvesting the supernatants. The amount of product in the supernatant (aldosterone for CYP11B2 assay and cortisol for the CYP11B1 assay) was measured using HTRF-based assay kit (Aldosterone HTRF-CisBio#64ALDPEB, Cortisol HTRF-CisBio #63IDC002-CORT). For orientation: TR-FRET usually uses a lanthanide donor and a delayed reading to cut background.

With `CC(=O)N1CCc2cc(-c3cnccc3C)cc(F)c21`, the IC50 is 0.2 nM.
With `CC(=O)N1CCc2cc(-c3cncc(F)c3C)cc(Cl)c21`, the IC50 worked out at 1.4 nM.
With `CC(C)C(=O)N1CCc2cc(-c3cncc4ccccc34)ccc21`, the IC50 was determined as 30 nM.
Then `O=C(N1CCc2cc(-c3cncc(F)c3)cc(Cl)c21)C(F)(F)F`, with 10.6 nM; and `O=C(N1CCc2cc(-c3cncc(F)c3)cc(F)c21)C(F)(F)F`, with 17.4 nM.
